Experimental findings from PMC5054527, “Mechanism of high affinity inhibition of the human urate transporter URAT1” (Scientific Reports, 2016) are described below.

SMILES strings stand for the structures. “And” between values parts separate entries of the source, which are not always exact repeats. Identical values can stand only once.

Assay in all cases: URAT1 uric acid transport activity assay
Assay [1] deals with T1, h-r TM1 chimera (rURAT1 residues 1–99 and hURAT residues 100–553) (UniProt Q3ZAV1+Q96S37).
T1 construct: a chimera consisting of rURAT1 residues 1–99 and hURAT residues 100–553 (h-r TM1); expressed in transfected cells; host or cells: HEK-293T
T1 sequence (Q3ZAV1 1-99, change not shown): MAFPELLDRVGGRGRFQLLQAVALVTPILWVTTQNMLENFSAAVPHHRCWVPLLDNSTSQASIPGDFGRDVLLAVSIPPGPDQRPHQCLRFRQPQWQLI
T1 sequence (Q96S37 100-553, change not shown): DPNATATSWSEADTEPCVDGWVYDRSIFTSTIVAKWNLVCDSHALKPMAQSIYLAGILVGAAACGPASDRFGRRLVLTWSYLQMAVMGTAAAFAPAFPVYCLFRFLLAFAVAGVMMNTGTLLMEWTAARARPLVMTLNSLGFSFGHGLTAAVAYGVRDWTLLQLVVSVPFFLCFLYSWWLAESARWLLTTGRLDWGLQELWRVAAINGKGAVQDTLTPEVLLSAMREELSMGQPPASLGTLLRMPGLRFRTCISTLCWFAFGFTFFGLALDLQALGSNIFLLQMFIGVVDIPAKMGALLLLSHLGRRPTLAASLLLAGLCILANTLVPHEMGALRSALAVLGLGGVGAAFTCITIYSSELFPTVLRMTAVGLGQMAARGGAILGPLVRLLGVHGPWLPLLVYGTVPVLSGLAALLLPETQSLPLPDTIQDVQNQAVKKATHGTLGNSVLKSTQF
The class given is cell-based, human/rat. The source says: (§1) hURAT1 (GenBank BC053348.1) and rURAT1 (NCBI NM_001034943.1) genes were purchased from Origene Technologies, Inc. and subcloned into pCMV6/neo using NotI, creating pCMV6/neo-hURAT1 and pCMV6/neo-rURAT1. Mutants were produced by polymerase chain reaction (PCR) or site-directed mutagenesis using the QuikChange Lightning Multi Site-Directed Mutagenesis Kit (Agilent Technologies). […] Detailed methods are provided in Supplementary Methods, and primers are listed in Supplementary Table 1. […] Residues in rURAT1 and hOAT1 that correspond to the residues in hURAT1 were identified from aligned protein sequences (Supplementary Fig. 1)[50].
(§2) DNA (10 μg) was mixed with 30 μl of DreamFect Gold (Boca Scientific) in 2 ml OptiMem (Life Technologies). After 20 minutes, 18 ml of media containing 2 × 10^7 cells in suspension was added and mixed, and 200 μl per well were plated onto white clear-bottomed poly-D-lysine coated 96-well plates (BD Biosciences). The cells were assayed the following day.
(§3) Compounds were serially diluted into assay buffer and added to the cells for 5 minutes prior to addition of radiolabelled uric acid substrate. URAT1-expressing cells were incubated with 100 μM ^14C-uric acid for 10 minutes. […] Each treatment was measured in triplicate.
(§4) Unlabelled uric acid was prepared at a 20 mM stock just prior to use in a solution containing 20 mM dibasic potassium phosphate and 20 mM potassium hydroxide.
(§5) Nonlinear regression analyses using GraphPad Prism software were used to calculate the potency of URAT1 inhibitors (IC50 values) from log (inhibitor) versus response - variable slope (four parameters) equations. Statistical significance was assessed using Student’s unpaired t-tests.

Assay [2] deals with T2, r-h TM1 chimera (hURAT1 residues 1–99 and rURAT1 residues 100–553) (UniProt Q3ZAV1+Q96S37).
T2 construct: The chimera r-hTM1, consisting of hURAT1 residues 1–99 and rURAT1 residues 100–553; expressed in transfected cells; host or cells: HEK-293T
T2 sequence (Q96S37 1-99, change not shown): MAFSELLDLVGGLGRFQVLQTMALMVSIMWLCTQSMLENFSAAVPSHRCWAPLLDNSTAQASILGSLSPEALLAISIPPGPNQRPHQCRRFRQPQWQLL
T2 sequence (Q3ZAV1 100-553, change not shown): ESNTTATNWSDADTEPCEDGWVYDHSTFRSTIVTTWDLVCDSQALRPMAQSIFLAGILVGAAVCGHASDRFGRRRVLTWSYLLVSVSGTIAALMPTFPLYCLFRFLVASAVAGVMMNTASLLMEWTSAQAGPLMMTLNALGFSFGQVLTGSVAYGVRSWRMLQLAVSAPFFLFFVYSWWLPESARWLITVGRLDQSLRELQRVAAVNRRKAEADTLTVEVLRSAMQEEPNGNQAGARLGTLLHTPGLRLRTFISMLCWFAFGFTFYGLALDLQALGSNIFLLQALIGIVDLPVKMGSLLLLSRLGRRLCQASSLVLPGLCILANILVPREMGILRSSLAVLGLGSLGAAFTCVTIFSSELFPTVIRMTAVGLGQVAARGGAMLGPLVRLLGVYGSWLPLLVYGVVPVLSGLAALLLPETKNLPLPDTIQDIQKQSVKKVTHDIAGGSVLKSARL
The class given is cell-based, human/rat. The note with it: HEPES pH 7.3, 100 μM 14C-uric acid.
From the text: as §1, §2, §3, §4, §5

The target in assay [3] is T3, h-r TM10 URAT1 chimera (Homo sapiens, UniProt Q96S37, G444S/I452V/V445L/Y455F).
T3 construct: expressed in transfected cells; host or cells: HEK-293T
T3 sequence (Q96S37 whole entry G444S/V445L/I452V/Y455F): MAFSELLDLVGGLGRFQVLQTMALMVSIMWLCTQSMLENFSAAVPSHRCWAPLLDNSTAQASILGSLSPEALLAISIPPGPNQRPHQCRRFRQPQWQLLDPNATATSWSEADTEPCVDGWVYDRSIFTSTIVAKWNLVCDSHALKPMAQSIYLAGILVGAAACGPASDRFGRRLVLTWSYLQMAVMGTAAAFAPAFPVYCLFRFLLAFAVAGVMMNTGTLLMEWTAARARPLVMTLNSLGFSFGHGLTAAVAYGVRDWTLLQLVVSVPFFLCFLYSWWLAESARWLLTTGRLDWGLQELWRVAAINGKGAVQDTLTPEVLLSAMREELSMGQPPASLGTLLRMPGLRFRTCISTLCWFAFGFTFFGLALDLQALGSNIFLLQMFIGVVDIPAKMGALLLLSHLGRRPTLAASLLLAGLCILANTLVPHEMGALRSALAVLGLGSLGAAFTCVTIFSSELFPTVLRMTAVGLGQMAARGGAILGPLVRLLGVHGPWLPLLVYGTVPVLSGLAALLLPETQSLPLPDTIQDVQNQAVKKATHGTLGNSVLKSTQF
The class given is cell-based, human/rat. The note with it: HEPES pH 7.3, 100 μM 14C-uric acid.
From the text: as §1, §2, §3, §4, §5

Assay [4] concerns the target T4, h-r TM5-C URAT1 chimera (Homo sapiens, UniProt Q96S37, A249G/A250S/G246V/H245Q).
T4 construct: expressed in transfected cells; host or cells: HEK-293T
The class given is cell-based, human/rat. The note with it: HEPES pH 7.3, 100 μM 14C-uric acid.
From the text: as §1, §2, §3, §4, §5

Assay [5] has as its target T5, h-r TM6 URAT1 chimera (Homo sapiens, UniProt Q96S37, C272F/L274V).
T5 construct: expressed in transfected cells; host or cells: HEK-293T
The format is cell-based, human/rat. The note with it: HEPES pH 7.3, 100 μM 14C-uric acid.
From the text: as §1, §2, §3, §4, §5

Assay [6] concerns the target T6, h-r TM11 URAT1 chimera (Homo sapiens, UniProt Q96S37, I481M/M474V).
T6 construct: expressed in transfected cells; host or cells: HEK-293T
The class given is cell-based, human/rat.
From the text: as §1, §2, §3, §4, §5

Assay [7] addresses T7, h-r TM5-N URAT1 chimera (Homo sapiens, UniProt Q96S37, S238A/V233M).
T7 construct: expressed in transfected cells; host or cells: HEK-293T
The format is cell-based, human/rat. The note with it: HEPES pH 7.3, 100 μM 14C-uric acid.
From the text: as §1, §2, §3, §4, §5

For assay [8], the target named is T8, h-r TM9-N URAT1 chimera (Homo sapiens, UniProt Q96S37, A411S/A416P/L414V).
T8 construct: expressed in transfected cells; host or cells: HEK-293T
T8 sequence (Q96S37 whole entry A411S/L414V/A416P): as the sequence (Q96S37 whole entry G444S/V445L/I452V/Y455F) above, with A411S, L414V, A416P, S444G, L445V, V452I, F455Y counted along it
The format is cell-based, human/rat. The note with it: HEPES pH 7.3, 100 μM 14C-uric acid.
From the text: as §1, §2, §3, §4, §5

Assay [9] deals with T9, h-r TM7 URAT1 chimera (Homo sapiens, UniProt Q96S37, C351F/F365Y/T354M).
T9 construct: expressed in transfected cells; host or cells: HEK-293T
T9 sequence (Q96S37 whole entry C351F/T354M/F365Y): as the sequence (Q96S37 whole entry G444S/V445L/I452V/Y455F) above, with C351F, T354M, F365Y, S444G, L445V, V452I, F455Y counted along it
The format is cell-based, human/rat.
From the text: as §1, §2, §3, §4, §5

The target of assay [10] is T10, h-r TM8 URAT1 chimera (Homo sapiens, UniProt Q96S37, A392V/A396S/F384L/H402R/I390L/M383A/P407L/V387I).
T10 construct: expressed in transfected cells; host or cells: HEK-293T
T10 sequence (Q96S37 whole entry M383A/F384L/V387I/I390L/A392V/A396S/H402R/P407L): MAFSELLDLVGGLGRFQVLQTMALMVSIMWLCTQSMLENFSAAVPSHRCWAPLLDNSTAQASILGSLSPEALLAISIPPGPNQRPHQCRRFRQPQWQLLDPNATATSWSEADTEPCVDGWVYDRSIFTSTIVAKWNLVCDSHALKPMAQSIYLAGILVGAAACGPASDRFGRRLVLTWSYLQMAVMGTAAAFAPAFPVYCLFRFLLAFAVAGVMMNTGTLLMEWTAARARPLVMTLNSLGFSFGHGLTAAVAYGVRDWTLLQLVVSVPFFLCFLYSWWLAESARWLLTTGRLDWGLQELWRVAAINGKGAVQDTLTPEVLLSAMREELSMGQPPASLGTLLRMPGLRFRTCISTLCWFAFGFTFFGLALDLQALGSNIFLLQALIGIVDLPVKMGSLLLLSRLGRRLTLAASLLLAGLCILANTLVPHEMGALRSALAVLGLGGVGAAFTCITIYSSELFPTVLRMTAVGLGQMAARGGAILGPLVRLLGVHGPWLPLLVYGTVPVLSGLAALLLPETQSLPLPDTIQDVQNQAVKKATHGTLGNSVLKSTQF
The class given is cell-based, human/rat. The note with it: HEPES pH 7.3, 100 μM 14C-uric acid.
From the text: as §1, §2, §3, §4, §5

For assay [11], the target named is T11, h-r TM9-C URAT1 chimera (Homo sapiens, UniProt Q96S37, A432I/A436S/H428R/T424I).
T11 construct: expressed in transfected cells; host or cells: HEK-293T
T11 sequence (Q96S37 whole entry T424I/H428R/A432I/A436S): as the sequence (Q96S37 whole entry G444S/V445L/I452V/Y455F) above, with T424I, H428R, A432I, A436S, S444G, L445V, V452I, F455Y counted along it
The format is cell-based, human/rat. The note with it: HEPES pH 7.3, 100 μM 14C-uric acid.
From the text: as §1, §2, §3, §4, §5

For assay [12], the target named is T12, h-I481M hURAT1 point mutant (Homo sapiens, UniProt Q96S37, I481M).
T12 construct: expressed in transfected cells; host or cells: HEK-293T
T12 sequence (Q96S37 whole entry I481M): as the sequence (Q96S37 whole entry G444S/V445L/I452V/Y455F) above, with S444G, L445V, V452I, F455Y, I481M counted along it
The format is cell-based.

For assay [13], the target named is T13, h-S27P hURAT1 point mutant (Homo sapiens, UniProt Q96S37, S27P).
T13 construct: expressed in transfected cells; host or cells: HEK-293T
T13 sequence (Q96S37 whole entry S27P): as the sequence (Q96S37 whole entry G444S/V445L/I452V/Y455F) above, with S27P, S444G, L445V, V452I, F455Y counted along it
The format is cell-based. The note with it: HEPES pH 7.3, 100 μM 14C-uric acid.

For assay [14], the target named is T14, h-C32T hURAT1 point mutant (Homo sapiens, UniProt Q96S37, C32T).
T14 construct: expressed in transfected cells; host or cells: HEK-293T
T14 sequence (Q96S37 whole entry C32T): as the sequence (Q96S37 whole entry G444S/V445L/I452V/Y455F) above, with C32T, S444G, L445V, V452I, F455Y counted along it
The format is cell-based. The note with it: HEPES pH 7.3, 100 μM 14C-uric acid.

The target of assay [15] is T15, h-T21A hURAT1 point mutant (Homo sapiens, UniProt Q96S37, T21A).
T15 construct: expressed in transfected cells; host or cells: HEK-293T
T15 sequence (Q96S37 whole entry T21A): as the sequence (Q96S37 whole entry G444S/V445L/I452V/Y455F) above, with T21A, S444G, L445V, V452I, F455Y counted along it
The class given is cell-based. The note with it: HEPES pH 7.3, 100 μM 14C-uric acid.

Assay [16] addresses T16, h-M25V hURAT1 point mutant (Homo sapiens, UniProt Q96S37, M25V).
T16 construct: expressed in transfected cells; host or cells: HEK-293T
The format is cell-based.

Assay [17] concerns the target T17, h-C351F/T354M hURAT1 double point mutant (Homo sapiens, UniProt Q96S37, C351F/T354M).
T17 construct: expressed in transfected cells; host or cells: HEK-293T
The class given is cell-based. The note with it: HEPES pH 7.3, 100 μM 14C-uric acid. Put shortly: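 Rat URAT1 point or double mutants in pCMV6/neo were transiently transfected into cells and assayed the next day. Compounds were preincubated for 5 minutes, then 100 μM 14C-uric acid uptake was measured over 10 minutes in triplicate. IC50 came from four-parameter variable-slope nonlinear regression.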

Assay [18] concerns the target T18, h-M22V hURAT1 point mutant (Homo sapiens, UniProt Q96S37, M22V).
T18 construct: expressed in transfected cells; host or cells: HEK-293T
The class given is cell-based. The note with it: HEPES pH 7.3, 100 μM 14C-uric acid.

The target in assay [19] is T19, h-V18L hURAT1 point mutant (Homo sapiens, UniProt Q96S37, V18L).
T19 construct: expressed in transfected cells; host or cells: HEK-293T
T19 sequence (Q96S37 whole entry V18L): as the sequence (Q96S37 whole entry G444S/V445L/I452V/Y455F) above, with V18L, S444G, L445V, V452I, F455Y counted along it
The class given is cell-based. The note with it: HEPES pH 7.3, 100 μM 14C-uric acid.

Assay [20] concerns the target T20, h-M474V hURAT1 point mutant (Homo sapiens, UniProt Q96S37, M474V).
T20 construct: expressed in transfected cells; host or cells: HEK-293T
The class given is cell-based. The note with it: HEPES pH 7.3, 100 μM 14C-uric acid.

Assay [21] has as its target T21, hURAT1-S35N/F365Y double point mutant (Homo sapiens, UniProt Q96S37, F365Y/S35N).
T21 construct: hURAT1 and rURAT1 are 553 amino acid proteins with 12 transmembrane segments; expressed in transfected cells; host or cells: HEK-293T
The class given is cell-based.

T16 sequence (Q96S37 whole entry M25V): as the sequence (Q96S37 whole entry G444S/V445L/I452V/Y455F) above, with M25V, S444G, L445V, V452I, F455Y counted along it
T6 sequence (Q96S37 whole entry M474V/I481M): as the sequence (Q96S37 whole entry G444S/V445L/I452V/Y455F) above, with S444G, L445V, V452I, F455Y, M474V, I481M counted along it
T21 sequence (Q96S37 whole entry S35N/F365Y): as the sequence (Q96S37 whole entry G444S/V445L/I452V/Y455F) above, with S35N, F365Y, S444G, L445V, V452I, F455Y counted along it
T18 sequence (Q96S37 whole entry M22V): as the sequence (Q96S37 whole entry G444S/V445L/I452V/Y455F) above, with M22V, S444G, L445V, V452I, F455Y counted along it
T4 sequence (Q96S37 whole entry H245Q/G246V/A249G/A250S): as the sequence (Q96S37 whole entry G444S/V445L/I452V/Y455F) above, with H245Q, G246V, A249G, A250S, S444G, L445V, V452I, F455Y counted along it
T7 sequence (Q96S37 whole entry V233M/S238A): as the sequence (Q96S37 whole entry G444S/V445L/I452V/Y455F) above, with V233M, S238A, S444G, L445V, V452I, F455Y counted along it
T5 sequence (Q96S37 whole entry C272F/L274V): as the sequence (Q96S37 whole entry G444S/V445L/I452V/Y455F) above, with C272F, L274V, S444G, L445V, V452I, F455Y counted along it
T20 sequence (Q96S37 whole entry M474V): as the sequence (Q96S37 whole entry G444S/V445L/I452V/Y455F) above, with S444G, L445V, V452I, F455Y, M474V counted along it
T17 sequence (Q96S37 whole entry C351F/T354M): as the sequence (Q96S37 whole entry G444S/V445L/I452V/Y455F) above, with C351F, T354M, S444G, L445V, V452I, F455Y counted along it

By IC50 is commonly meant the concentration needed to halve the response being measured. Regarding `O=C1C(CC[S+]([O-])c2ccccc2)C(=O)N(c2ccccc2)N1c1ccccc1` (stereo not drawn) [sulfinpyrazone], the “fold reduced affinity of h-r TM1 compared to hURAT1” value in [1] (from IC50 values) came out at 3 fold. Further, the IC50 was found to be 93 ± 17 µM in assay [1] (h-r TM1, HEPES pH 7.3, 100 μM 14C-uric acid); 87 ± 25 µM in assay [2]; 49 ± 11 µM in [3]; 34 ± 4 µM in assay [4]; 30 ± 4 µM in [5]; 100 ± 15 µM in assay [6] (h-r TM11, HEPES pH 7.3, 100 μM 14C-uric acid). The IC50 stood at 37 ± 9 µM in [7]; 36 ± 17 µM in assay [8]; 254 ± 47 µM in assay [9] (h-r TM7, HEPES pH 7.3, 100 μM 14C-uric acid); 29 ± 13 µM in assay [10]; 38 ± 11 µM in assay [11]; 118 ± 8.1 µM in assay [12] (h-I481M, HEPES pH 7.3, 100 μM 14C-uric acid). The IC50 in assay [13] was 9.3 µM and 9 µM; in assay [14], 29 ± 3.2 µM; in assay [15], 12 ± 2.3 µM; in assay [16] (h-M25V, HEPES pH 7.3, 100 μM 14C-uric acid), 53 ± 6 µM; in [17], 60 ± 5.9 µM; in [18], 28 ± 3.1 µM. The IC50 in assay [19] was determined as 19 ± 4.7 µM; in [20] it was 30 ± 3.4 µM. Besides, the “fold reduced affinity of h-r TM11 compared to hURAT1” value in assay [6] (from IC50 values) worked out at 3 fold. Further, the “fold reduced affinity of h-r TM7 compared to hURAT1” value in [9] (from IC50 values) was 8 fold. In addition, the “fold reduced affinity of h-I481M compared to hURAT1” value in [12] (from IC50 values) amounted to 4 fold. The “fold reduced affinity of h-M25V compared to hURAT1” value in assay [16] (from IC50 values) is reported as 1.7 fold.
For `O=c1[nH]c(=O)c2[nH]c(=O)[nH]c2[nH]1` [uric acid], the “fold decrease in affinity of h-S35N/F365Y relative to hURAT1” value in assay [21] (from IC50 values) is recorded as 3.9 fold. Moreover, the IC50 in assay [21] (hURAT1-S35N/F365Y, MES pH 5.5, 100 μM 14C-uric acid) was determined as 960 µM.
